Data set [1] concerns mouse colon cancer CT26 cell allograft tumor. The experiment in a line: In vivo anti-tumor efficacy, CT26 mouse colon cancer cell transplanted tumor model. The arrangement: species or system BALB/c nude mice. The note with it: gavage 30 mg/kg twice a day, 18 days. Here is the method:
Experimental procedure: The selected experimental animals were BALB/c nude mice, 7 weeks, weighing 16-20 g, female.
Cells: Mouse colon cancer CT26 cells (Cell Bank of Type Culture Collection Committee of Chinese Academy of Sciences) were cultured in monolayer in vitro, and culture condition was RPMI-1640 medium containing 10% fetal bovine serum, in 37° C., 5% CO2 incubator. Trypsin-EDTA was used for routine digestion and passage. When the cells were in the exponential growth phase and the saturation was 80%-90%, the cells were collected, counted, and inoculated. 0.1 mL of DPBS (containing 3×10^5 CT26 cells) was subcutaneously inoculated on the right back of each mouse. When the average tumor volume reached 50-70 mm^3, randomized administration was carried out according to the tumor volume. Gavage dosage: 30 mg/kg, twice a day.
(§1) The experimental index was to investigate whether the tumor growth was inhibited, alleviated or cured. The diameters of the tumors were measured with a vernier caliper twice a week. The anti-tumor efficacy of the compound was evaluated by TGI (%) or the relative tumor growth rate T/C (%). TGI (%) reflects the tumor growth inhibition rate. […]

Another data set relates to P-gp (human MDR1). In words: In vitro permeability test in MDR1-MDCK II cells. In kind it is in vitro ADME, canine. The note with it: dog. From the text: (§2) MDR1-MDCK II cell authorized by the Piet Borst Laboratory of the Netherlands Cancer Institute was used in the study, the cell is a Madin-Darby canine kidney cell transfected with the human multi-drug resistance gene (MDR1), which can stably express efflux transporter P glycoprotein (P-gp) and therefore is suitable for screening P-gp substrate or inhibitor, and for predicting the permeability of compounds with high efflux barriers such as duodenum, blood-brain barrier, […], and kidney unit. MDR1-MDCK II cells of from passage 5-35 were used for permeability study.
(§3) MDR1-MDCK II cells were cultured with α-MEM medium (α-Minimum Essential Media) under culture condition of 37±1° C., 5% CO2 and saturated relative humidity. Then, the cells were seeded in a BD Transwell-96 well plate at a seeding density of 2.3×10^5 cells/cm^2, and then the cells were cultured in a carbon dioxide incubator for 4-7 days for transport experiment. The preparation method of its α-MEM medium was as follows:
(§4) The liquid nutrient base was prepared with powder (α-MEM powder from Gibco, Cat #:11900) dissolved in pure water, and was added with L- (L-glutamine) and NaHCO3. Then 10% FBS (fetal bovine serum), 1% PS (double antibody) and 1% NEAA were added upon use to make a complete medium. […]
(§5) After all samples were vortexed and centrifuged at 3220 g for 10 min, an appropriate volume of supernatant was transferred to the sample analysis plate. After the plate was sealed, the sample should be stored at 2-8° C. if it was not analyzed immediately, using the LC-MS/MS method for analysis.
(§6) After the transport experiment was over, the integrity of the MDR1-MDCK II cells was tested by the Lucifer Yellow Rejection Assay. After 30 min of incubation with the Lucifer Yellow solution, the Lucifer Yellow sample was collected, and the 2e plate reader set at 425/528 nm (Excitation/Emission) was used to detect the relative fluorescence intensity (RFU) of fluorescent yellow in the sample.

A further data set has as its system P-gp (MDR1). In words: In vitro permeability test in MDR1-MDCK II cells. In kind it is in vitro ADME, canine. The note with it: dog.
Excerpt: as §2, §3, §4, §5, §6

Data set [2] has as its system human colon cancer LoVo cell subcutaneous xenograft tumor. The experiment in a line: In vivo pharmacodynamic study, human colon cancer LoVo cell subcutaneous xenograft tumor model. The arrangement: species or system BALB/c nude mice. The note with it: gavage 40 mg/kg twice a day, 16 days. Here is the method:
Experimental method: The selected experimental animals (provided by Shanghai SIPPR-BK Experimental Animal Co., Ltd.) were BALB/c nude mice, 6-8 weeks, weighing 18-22 g.
Human colon cancer LoVo cells were cultured in monolayer in vitro, and culture conditions were Ham's F-12 medium with 10% fetal bovine serum, 100 U/mL penicillin, 100 μg/mL streptomycin and 2 mM glutamine, 37° C., 5% CO2. Trypsin-EDTA was used for routine digestion and passage, twice a week. When the cell saturation is 80%-90%, the cells were collected, counted, and inoculated. 0.1 mL (10×10^6 cells) of LoVo cells were subcutaneously inoculated on the right back of each nude mouse, and group administration was initiated when the average tumor volume reached 213 mm^3. Dosage for gavage administration was 40 mg/kg, twice a day. The experimental index was to investigate whether the tumor growth was inhibited, alleviated or cured. The diameters of the tumors were measured with a vernier caliper twice a week. The calculation formula for the tumor volume was V=0.5a×b^2, where a and b represent the long diameter and short diameter of the tumor, respectively.
The anti-tumor efficacy of the compound was evaluated by TGI (%) or the relative tumor growth rate T/C (%). TGI (%) reflects the tumor growth inhibition rate. […]

Data set [3] deals with human pancreatic cancer BxPC-3 cell xenograft tumor. The experiment in a line: In vivo pharmacodynamic study, human pancreatic cancer BxPC-3 subcutaneously transplanted tumor model. Set-up: species or system BALB/c nude mice. The note with it: BxPC-3 xenograft, gavage 25 mg/Kg once a day, 27 days. Here is the method:
Experimental procedure: The selected experimental animals were BALB/c nude mice, 6-8 weeks, weighing 18-22 g.
The 10th generation of BxPC-3 cells were cultured in monolayer in vitro, and the culture conditions were RPMI 1640 medium (Manufacturer: Gibco, Catalog: 22400-089) with 10% fetal bovine serum, 100 U/mL penicillin and 100 μg/mL Streptomycin, 37° C., 5% CO2, 4 passages. The passage method was twice a week with trypsin-EDTA for routine digestion and passage. When the cell saturation reached 80%-90%, the cells were digested with trypsin-EDTA, counted, and resuspended in PBS at a density of 5×10^7 cells/mL. Each animal was inoculated with 0.1 mL (5×10^6 cells) of BxPC-3 cells on the right back. When the average tumor volume reached 153 mm^3, they were randomly grouped according to the tumor volume and administration was started. Gavage dosage: 25 mg/Kg, once a day.
as §1

The target of a further data set is T1, Wee1 (Homo sapiens, UniProt P30291).
T1 construct: purchased Eurofins
In words: In vitro enzymatic inhibitory activity (Eurofins, [γ-33P]-ATP filter assay). The format is biochemical. The note with it: 10 μM ATP, 40 min, room temperature.

Data set [4] is described as follows: Pharmacokinetic evaluation after single intravenous and single oral administration. The format is in vivo, female Balb/c Nude mice. The note with it: female, Balb/c Nude; for AUC(0-t): read-out: Area under the drug-time curve AUC0-last; for half-life: read-out: Half-life T1/2 (converted). As to the method:
Twelve mice (provided by Lingchang) were randomly divided into two groups, 6 females in each group, and samples were collected by cross-blood sampling.
In the intravenous group, plasma samples were collected at 9 time points: 5 min, 15 min, 30 min, 1 h, 2 h, 4 h, 6 h, 8 h, and 24 h after the administration. In the oral group, plasma samples were collected at 8 time points: 15 min, 30 min, 1 h, 2 h, 4 h, 6 h, 8 h and 24 h after the administration.

The nature of data set [5]: Solid stability test of Crystal Form F under high temperature, high humidity, illumination and accelerated conditions. In kind it is physicochemical. As to the method: According to influencing factors and accelerated test conditions, about 5 mg of Crystal Form F of the Compound of Formula (I) was weighed precisely and placed in a dry and clean glass bottle, in duplicate, and spread into a thin layer, as the formal test sample, placed under the influencing factors test conditions (60° C., 92.5% RH (relative humidity)) and accelerated conditions (40° C./75% RH and 60° C./75% RH), with the samples fully exposed. The test system was covered with an aluminum foil paper with small holes. In addition, a small amount of samples were taken and placed in a 40 mL glass sample bottle under the same conditions to determine the crystal state. Sampling and analysis were performed on day 5 days, 10 days, and one month. The samples placed under Illumination (visible light 1200000 Lux, UV 200 W) conditions were fully exposed at room temperature.

Setting [6] is: po, Administration by gavage, 10 mg/kg, mouse plasma.
[7] abbreviates: Intravenous administration, 1 mg/kg, mouse plasma.
Setting [8] is: Illumination (visible light 1200000 Lux, UV 200 W), room temperature.

T1 sequence (P30291 whole entry): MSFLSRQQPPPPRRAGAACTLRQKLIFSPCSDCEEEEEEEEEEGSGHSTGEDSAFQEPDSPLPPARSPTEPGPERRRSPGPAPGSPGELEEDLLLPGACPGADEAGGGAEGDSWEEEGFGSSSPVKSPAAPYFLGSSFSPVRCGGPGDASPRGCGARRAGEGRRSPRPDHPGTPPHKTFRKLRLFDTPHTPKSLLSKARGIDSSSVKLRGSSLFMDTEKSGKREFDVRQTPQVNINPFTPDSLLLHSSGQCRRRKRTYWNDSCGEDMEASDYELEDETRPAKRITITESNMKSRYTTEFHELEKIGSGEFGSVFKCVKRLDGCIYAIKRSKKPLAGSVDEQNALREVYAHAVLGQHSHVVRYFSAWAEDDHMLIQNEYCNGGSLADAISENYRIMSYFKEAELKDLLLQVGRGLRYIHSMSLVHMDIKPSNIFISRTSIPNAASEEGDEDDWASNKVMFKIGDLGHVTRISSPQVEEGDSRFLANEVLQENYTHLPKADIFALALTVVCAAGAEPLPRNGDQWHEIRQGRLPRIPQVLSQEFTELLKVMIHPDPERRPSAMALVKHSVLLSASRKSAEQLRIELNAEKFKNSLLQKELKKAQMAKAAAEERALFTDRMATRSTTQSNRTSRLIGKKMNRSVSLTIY
Procedure for Wee1: The experimental test was carried out in Eurofins, and the experimental results were provided by the company.
Into the test system were added 20 mM Tris-HCl, pH 8.5, 0.2 mM EDTA, 500 μM polypeptide substrate ([sequence]), 10 mM magnesium acetate and 10 μM [γ-^33P]-ATP (intensity of about 500 cpm/pmol). After addition of Mg^2+ and ATP mixture, the reaction was initiated and incubated at room temperature for 40 min. 3% phosphate buffer was added to stop the reaction.
10 μL of reaction solution was taken and filtered on a continuous filter P30, and washed three times with 75 mM phosphate buffer, once with methanol, each washing for 5 min. After drying, the values were read by scintillation counting method.

Regarding `CN1CCN(c2ccc(Nc3ncc4c(=O)n5n(c4n3)-c3cccc(n3)[C@](C)(O)CC/C=C\C5)cc2)CC1` (single isomer, unassigned) [Compound of Formula (I)], the “TGI (%)” value is given as 93.38% in data set [1], 84.74% in data set [2] and 73.3% in data set [3]. The efflux ratio at 150 min, 2 μM with P-gp (human MDR1) is 3.82. The Papp A→B at 150 min, 2 μM with P-gp (MDR1) (read-out: Penetration rate A to B) is 4.55 ×10⁻⁶ cm/s. In addition, the Papp B→A at 150 min, 2 μM in the data set on P-gp (MDR1) (read-out: Penetration rate B to A) was 17.4 ×10⁻⁶ cm/s. Half-maximal inhibition on Wee1 (IC50) required 29 nM. For the same molecule, the bioavailability in data set [4] (mouse, plasma, po, Administration by gavage, 10 mg/kg, read-out: Bioavailability F (%)) came out at 62.4%. In addition, the AUC(0-t) in data set [4] (setting [6]) was 6.04 µM·h. Further, in data set [4] (Intravenous administration, 1 mg/kg, mouse plasma, read-out: Clearance rate), the clearance came out at 33.5 mL/min/kg. Moreover, the half-life in data set [4] (setting [7]) was 101 min.

Consider `C=CCn1c(=O)c2cnc(Nc3ccc(N4CCN(C)CC4)cc3)nc2n1-c1cccc(C(C)(C)O)n1` [AZD1775, reference compound], for which the “TGI (%)” value in data set [1] amounted to 66.43%; in data set [2], 26.73%; in data set [3], 24.3%. Besides, in data set [4] (setting [6]), the AUC(0-t) turned out to be 1.2 µM·h. Moreover, in data set [4] (setting [7]), the half-life was 15.1 min.

For `CN1CCN(c2ccc(Nc3ncc4c(=O)n5n(c4n3)-c3cccc(n3)[C@](C)(O)CC/C=C\C5)cc2)CC1` [Crystal Form F], the Content % in data set [5] (0 day) is 99.38%; in data set [5] (40° C.-75% humidity, 1 month), 97.94%; in data set [5] (40° C.-75% humidity, 10 day), 98.01%; in data set [5] (60° C., 5 days), 99.39%; in data set [5] (60° C., 10 days), 99.98%; in data set [5] (60° C.-75% humidity, 1 month) it was 99.46%. Further, the Content % in data set [5] (60° C.-75% humidity, 10 day) is recorded as 100.43%; in data set [5] (92.5% humidity, 5 days), 98.72%; in data set [5] (92.5% humidity, 10 days), 98.38%; in data set [5] (setting [8]), 98.58%; in data set [5] (Protection from light), 97.77%. Further, the Total impurity % turned out to be 0.63% in data set [5] (0 day); 0.62% in data set [5] (40° C.-75% humidity, 1 month); 0.63% in data set [5] (40° C.-75% humidity, 10 day); 0.74% in data set [5] (60° C., 5 days); 0.84% in data set [5] (60° C., 10 days); 0.75% in data set [5] (60° C.-75% humidity, 1 month). Further, the Total impurity % stood at 0.69% in data set [5] (60° C.-75% humidity, 10 day); 0.61% in data set [5] (92.5% humidity, 5 days); 0.64% in data set [5] (92.5% humidity, 10 days); 0.67% in data set [5] (setting [8]); 0.61% in data set [5] (Protection from light). Besides, the “Crystal form change (physical stability)” value in data set [5] (one-month solid influencing factor and accelerated test) is reported as “did not change”.

The values above are taken from patent US12291536B2, “Crystal form of Wee1 inhibitor compound and use thereof” (Wuxi Biocity Biopharmaceutics Co., Ltd., priority 2019, dated 2025).
